Legend:
Bile acid receptor [1] = biological target: T1, Bile acid receptor (Homo sapiens, UniProt Q96RI1); assay: Agonist activity at FXR; format: functional
T1 sequence (Q96RI1 whole entry): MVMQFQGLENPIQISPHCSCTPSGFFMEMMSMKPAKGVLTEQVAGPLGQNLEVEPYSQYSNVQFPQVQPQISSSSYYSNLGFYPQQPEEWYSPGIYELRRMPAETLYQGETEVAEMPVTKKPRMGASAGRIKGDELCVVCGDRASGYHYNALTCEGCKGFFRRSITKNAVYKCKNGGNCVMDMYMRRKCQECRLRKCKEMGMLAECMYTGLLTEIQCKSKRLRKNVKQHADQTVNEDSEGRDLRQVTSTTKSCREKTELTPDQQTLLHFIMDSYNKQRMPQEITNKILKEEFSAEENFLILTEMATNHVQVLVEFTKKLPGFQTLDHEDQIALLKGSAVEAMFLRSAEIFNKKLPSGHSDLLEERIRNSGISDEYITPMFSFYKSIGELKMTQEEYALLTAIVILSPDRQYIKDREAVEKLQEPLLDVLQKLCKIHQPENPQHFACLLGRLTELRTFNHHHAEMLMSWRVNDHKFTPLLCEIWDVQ

[2] = biological target: T2, Bile acid receptor (Homo sapiens) (UniProt Q96RI1); assay: Antagonist activity at GST-tagged FXRalpha ligand binding domain assessed as inhibition of CDCA-induced biotinylated SRC1 binding at 20 uM after 30 mins by HTRF assay
T2 sequence (whole entry): T1 sequence (Q96RI1 whole entry)

[3] = biological target: T2, Bile acid receptor (Homo sapiens); assay: Agonist activity at GST-tagged FXRalpha ligand binding domain assessed as biotinylated SRC1 binding at 20 uM after 30 mins by HTRF assay
[4] = biological target: T2, Bile acid receptor (Homo sapiens); assay: (§1) Antagonist activity at GST-tagged FXRalpha ligand binding domain assessed as inhibition of CDCA-induced biotinylated SRC1 binding after 30 mins by HTRF assay
Bile acid receptor [5] = biological target: T1, Bile acid receptor; assay: as §1
[6] = biological target: T2, Bile acid receptor (Homo sapiens); assay: (§2) Agonist activity at FXRalpha expressed in HEK293 cells assessed as increase in transcriptional activity after 18 hrs by luciferase reporter gene assay; format: functional, cell-based
Bile acid receptor [7] = biological target: T1, Bile acid receptor; assay: as §2; format: functional, cell-based
[8] = biological target: T2, Bile acid receptor (Homo sapiens); assay: (§3) Agonist activity at GST-tagged FXRalpha ligand binding domain assessed as biotinylated SRC1 binding after 30 mins by HTRF assay
Bile acid receptor [9] = biological target: T1, Bile acid receptor; assay: as §3

Row | EC50 (Bile acid receptor [1]) [µM] | inhibition [2] [%] | Activity [3] [%] | inhibition [4] | IC50 (Bile acid receptor [5]) [µM] | Activity [6] | EC50 (Bile acid receptor [7]) [µM] | Activity [8] | EC50 (Bile acid receptor [9]) [µM] | SMILES
1 | 0.094 |  |  |  |  |  |  |  |  | Cc1cc(OCc2c(-c3c(Cl)cncc3Cl)noc2C(C)C)ccc1-c1ccc2c(c1)c(C(=O)O)cn2C
2 |  | 63.3 | < 5 | Dose-dependent effect | 3.77 |  |  |  |  | O=C(COC(=O)c1ccc(O)cc1)Nc1sc2c(c1C(=O)c1ccccc1)CCCC2
3 |  | 7.28 | 52.5 |  |  | Dose-dependent effect | 2.6 | Dose-dependent effect | 12.9 | NC(=O)c1ccc(NC(=O)[C@@H](Cc2ccccc2)NC(=O)c2ccc(Cl)cc2)cc1
4 | 0.036 |  |  |  |  |  |  |  |  | COC(=O)/C=C/c1cccc(N(Cc2ccc(/C=C/c3ccccc3)cc2)C(=O)C2CCCCC2)c1
5 |  | 57.1 | < 5 | Dose-dependent effect | 8.23 |  |  |  |  | C[C@@H]1CCc2c(sc3nc(CN4CCOCC4)nc(N[C@H](c4ccccc4)c4ccccn4)c23)C1

Source: ChEMBL document CHEMBL2157979, “Discovery of new non-steroidal FXR ligands via a virtual screening workflow based on Phase shape and induced fit docking” (Bioorg Med Chem Lett, 2012)
